Source: ChEMBL document CHEMBL1149863, “Phenolic glycosides from berries of Pimenta dioica” (J Nat Prod, 2008)

assay: DPPH radical scavenging activity after 180 mins; assay type: functional

| IC50 [µM] | SMILES |
| --- | --- |
| 15 | C=CCc1cc(OC)c(O)c(O[C@@H]2O[C@H](COC(=O)/C=C/c3cc(OC)c(O)c(OC)c3)[C@@H](O)[C@H](O)[C@H]2O)c1 |
| 27.5 | C=CCc1ccc(O)c(OC)c1 [EUGENOL] |
| 25.7 | COc1cc(/C=C/C(=O)O)cc(OC)c1O [SINAPINATE] |

The next lines start with the molecule.

| SMILES | IC50 [µM] |
| --- | --- |
| CC1=CC[C@@H](C(C)(C)O[C@@H]2O[C@H](CO[C@@H]3O[C@@H](CO)[C@H](O)[C@H]3OC(=O)c3cc(O)c(O)c(O)c3)[C@@H](O)[C@H](O)[C@H]2O)CC1 | 10.5 |
| O=C(O)C[C@H]1CCC(=O)[C@@H]1C/C=C\CCO[C@@H]1O[C@H](COC(=O)c2cc(O)c(O)c(O)c2)[C@@H](O)[C@H](O)[C@H]1O | 11.2 |
| CC1=CC[C@H](C(C)(C)O[C@@H]2O[C@H](CO[C@@H]3O[C@@H](CO)[C@H](O)[C@H]3OC(=O)c3cc(O)c(O)c(O)c3)[C@@H](O)[C@H](O)[C@H]2O)CC1 | 11.6 |
| O=C(O)c1cc(O)c(O)c(O)c1 [GALLIC ACID] | 8 |
